In US20090246776A1, “Modulators of scarb-1 for treating acne or hyperseborrhea” (GALDERMA RESEARCH & DEVELOPMENT, priority 2006, published 2009):

System: SCARB-1 gene
Settings: gonadectomized male mice, short-term treatment; effect not visible at 18, 24, 48 and 96 hours
Experimental: The expression of the genes was analyzed on an Affymetrix station (microfluidic model; hybridization oven; scanner; computer) following the protocols provided by the company. Briefly, the total RNA isolated from the tissues is transcribed to cDNA. From the double-stranded cDNA, a cRNA labeled with biotin is synthesized using T7 polymerase and a precursor NTP conjugated to biotin. The cRNAs are then fragmented to small sized fragments. All the molecular biology steps are checked using the Agilent “Lab on a chip” system in order to confirm the good efficiencies of the enzymatic reactions. The Affymetrix chip is hybridized with the biotinylated cRNA, rinsed and then fluorescence labeled using a fluorophore conjugated to streptavidin. After washings, the chip is scanned and the results are calculated using the MAS5 software provided by Affymetrix. An expression value is obtained for each gene as well as the indication of the significance of the value obtained.
B. Male mice were gonadectomized and treated with the vehicle or DHT. A kinetic study of the expression of the gene from 15 minutes to 96 hours was carried out. For this, the preputial glands were removed for a period ranging up to 4 days (androgenic treatment alone observation of a short-term kinetics), the RNA was isolated and the expression of the genes was analyzed by the Affymetrix technique (FIG. 2).

C[C@]12CCC(=O)C[C@@H]1CC[C@@H]1[C@@H]2CC[C@]2(C)[C@@H](O)CC[C@@H]12 [DHT, Dihydrotestosterone]
mRNA for SCARB-1 in the mouse preputial gland: not induced
